The supplement of paper PMC10307832

Tests used:
Experiment in all cases: relative viability (nuclei count vs DMSO), 5 days (fraction); higher = more cells survive
SW 900 = system: SW 900
Outline: (§1)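 Relative viability was taken as the ratio of nuclei in treated wells to nuclei in vehicle wells. Lung cancer cell lines in 1536-well plates received compounds by pin tool one day after seeding, either one drug alone or a fixed anchor-drug dose plus five library-drug doses (not always all listed) in √10 steps. Nuclei were counted on 4× images after 5 days of treatment, and values are medians of duplicate plates.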

HCC-44 = system: HCC-44
Outline: as §1

NCI-H596 = system: NCI-H596
Outline: as §1

A-427 = system: A-427
Outline: as §1

NCI-H2347 = system: NCI-H2347
Outline: as §1

LCLC-97TM1 = system: LCLC-97TM1
Outline: as §1

LCLC-103H = system: LCLC-103H
Outline: as §1

LC-2-ad = system: LC-2-ad
Outline: as §1

LU99A = system: LU99A
Outline: as §1

201T = system: 201T
Outline: as §1

H3255 = system: H3255
Outline: as §1

PC-14 = system: PC-14
Outline: as §1

NCI-H727 = system: NCI-H727
Outline: as §1

COR-L23 = system: COR-L23
Outline: as §1

LK-2 = system: LK-2
Outline: as §1

NCI-H23 = system: NCI-H23
Outline: as §1

NCI-H2228 = system: NCI-H2228
Outline: as §1

NCI-H1793 = system: NCI-H1793
Outline: as §1

SW 1573 = system: SW 1573
Outline: as §1

NCI-H1650 = system: NCI-H1650
Outline: as §1

NCI-H460 = system: NCI-H460
Outline: as §1

PC-3 [JPC-3] = system: PC-3 [JPC-3]
Outline: as §1

COc1nc(C)cnc1NS(=O)(=O)c1cccnc1-c1ccc(-c2nnco2)cc1 [Zibotentan] + O=C(CCCCCCC(=O)Nc1ccccc1)NO [Vorinostat] (partner 1 µM)
relative viability (SW 900; first compound 0.08 µM): 0.559
relative viability (SW 900; first compound 0.253 µM): 0.404
relative viability (SW 900; first compound 0.8 µM): 0.552
relative viability (SW 900; first compound 2.53 µM): 0.588
relative viability (HCC-44; first compound 0.08 µM): 1.12
relative viability (HCC-44; first compound 0.253 µM): 1.08
relative viability (HCC-44; first compound 0.8 µM): 1.02
relative viability (HCC-44; first compound 2.53 µM): 1.08
relative viability (NCI-H596; first compound 0.08 µM): 0.568
relative viability (NCI-H596; first compound 0.253 µM): 0.533
relative viability (NCI-H596; first compound 0.8 µM): 0.591
relative viability (NCI-H596; first compound 2.53 µM): 0.713
relative viability (A-427; first compound 0.08 µM): 0.921
relative viability (A-427; first compound 0.253 µM): 0.848
relative viability (A-427; first compound 0.8 µM): 0.905
relative viability (A-427; first compound 2.53 µM): 0.928
relative viability (NCI-H2347; first compound 0.08 µM): 0.622
relative viability (NCI-H2347; first compound 0.253 µM): 0.566
relative viability (NCI-H2347; first compound 0.8 µM): 0.658
relative viability (NCI-H2347; first compound 2.53 µM): 0.744
relative viability (LCLC-97TM1; first compound 0.08 µM): 0.822
relative viability (LCLC-97TM1; first compound 0.253 µM): 0.831
relative viability (LCLC-97TM1; first compound 0.8 µM): 0.697
relative viability (LCLC-97TM1; first compound 2.53 µM): 0.755
relative viability (LCLC-103H; first compound 0.08 µM): 0.801
relative viability (LCLC-103H; first compound 0.253 µM): 0.842
relative viability (LCLC-103H; first compound 0.8 µM): 0.722
relative viability (LCLC-103H; first compound 2.53 µM): 0.839
relative viability (LC-2-ad; first compound 0.08 µM): 0.751
relative viability (LC-2-ad; first compound 0.253 µM): 0.723
relative viability (LC-2-ad; first compound 0.8 µM): 0.739
relative viability (LC-2-ad; first compound 2.53 µM): 0.731
relative viability (LU99A; first compound 0.08 µM): 0.514
relative viability (LU99A; first compound 0.253 µM): 0.537
relative viability (LU99A; first compound 0.8 µM): 0.463
relative viability (LU99A; first compound 2.53 µM): 0.477
relative viability (201T; first compound 0.08 µM): 0.96
relative viability (201T; first compound 0.253 µM): 0.972
relative viability (201T; first compound 0.8 µM): 0.952
relative viability (201T; first compound 2.53 µM): 1
relative viability (H3255; first compound 0.08 µM): 0.926
relative viability (H3255; first compound 0.253 µM): 0.785
relative viability (H3255; first compound 0.8 µM): 0.877
relative viability (H3255; first compound 2.53 µM): 0.778
relative viability (PC-14; first compound 0.08 µM): 0.937
relative viability (PC-14; first compound 0.253 µM): 0.421
relative viability (PC-14; first compound 0.8 µM): 0.81
relative viability (PC-14; first compound 2.53 µM): 0.77
relative viability (NCI-H727; first compound 0.08 µM): 1.19
relative viability (NCI-H727; first compound 0.253 µM): 1.24
relative viability (NCI-H727; first compound 0.8 µM): 1.07
relative viability (NCI-H727; first compound 2.53 µM): 1.19
relative viability (COR-L23; first compound 0.08 µM): 0.448
relative viability (COR-L23; first compound 0.253 µM): 0.446
relative viability (COR-L23; first compound 0.8 µM): 0.351
relative viability (COR-L23; first compound 2.53 µM): 0.46
relative viability (LK-2; first compound 0.08 µM): 0.304
relative viability (LK-2; first compound 0.253 µM): 0.305
relative viability (LK-2; first compound 0.8 µM): 0.338
relative viability (LK-2; first compound 2.53 µM): 0.209
relative viability (NCI-H23; first compound 0.08 µM): 0.642
relative viability (NCI-H23; first compound 0.253 µM): 0.497
relative viability (NCI-H23; first compound 0.8 µM): 0.452
relative viability (NCI-H23; first compound 2.53 µM): 0.707
relative viability (NCI-H2228; first compound 0.08 µM): 0.805
relative viability (NCI-H2228; first compound 0.253 µM): 0.719
relative viability (NCI-H2228; first compound 0.8 µM): 0.613
relative viability (NCI-H2228; first compound 2.53 µM): 0.92
relative viability (NCI-H1793; first compound 0.08 µM): 0.673
relative viability (NCI-H1793; first compound 0.253 µM): 0.673
relative viability (NCI-H1793; first compound 0.8 µM): 0.925
relative viability (NCI-H1793; first compound 2.53 µM): 0.973
relative viability (SW 1573; first compound 0.08 µM): 0.76
relative viability (SW 1573; first compound 0.8 µM): 0.957
relative viability (SW 1573; first compound 2.53 µM): 0.885
relative viability (NCI-H1650; first compound 0.08 µM): 0.528
relative viability (NCI-H1650; first compound 0.8 µM): 0.61
relative viability (NCI-H1650; first compound 2.53 µM): 0.646
relative viability (NCI-H460; first compound 0.08 µM): 0.673
relative viability (NCI-H460; first compound 0.253 µM): 0.541
relative viability (NCI-H460; first compound 0.8 µM): 0.739
relative viability (NCI-H460; first compound 2.53 µM): 0.719
relative viability (PC-3 [JPC-3]; first compound 0.08 µM): 1.19
relative viability (PC-3 [JPC-3]; first compound 0.253 µM): 0.561
relative viability (PC-3 [JPC-3]; first compound 0.8 µM): 0.72
relative viability (PC-3 [JPC-3]; first compound 2.53 µM): 0.867
